Test results from US7151195B2, “Phthalamide derivative, agricultural or horticultural insecticide, and method of use thereof” (Bayer CropScience LP, priority 2002, dated 2006).

Assays:
Format in all cases: in vivo
[1] = tested on: Common Cutworm (Spodoptera litura); assay: Insecticidal test on common cutworm (Test Example 2); settings: cabbage leaf immersed about 30 seconds, second-instar larvae, counted eight days after inoculation, 25° C.; for Test Example 2: insecticidal effect (mortality criterion): 50 ppm; for mortality at 50 ppm: Spodoptera litura, 192 h, read-out: Test Example 2: insecticidal effect (mortality criterion)
Method: A piece of cabbage leaf (cultivar; Shikidori) was immersed for about 30 seconds in a liquid chemical prepared by diluting a preparation containing each compound listed in Tables 1 to 3 as an active ingredient to adjust the concentration to 50 ppm. After air-dryness, it was placed in a plastic Petri dish with a diameter of 9 cm and inoculated with second-instar larvae of common cutworm, after which the dish was closed and then allowed to stand in a room thermostatted at 25° C. Eight days after the inoculation, the dead and alive were counted. The mortality was calculated according to the following equation and the insecticidal effect was judged according to the criterion shown in Test Example 1. The test was carried out with triplicate groups of 10 insects.

[2] = tested on: Smaller Tea Tortrix (Adoxophyes sp.); assay: Insecticidal test on smaller tea tortrix (Test Example 3); settings: 50 ppm; tea leaves immersed about 30 seconds; larvae; counted eight days after inoculation; 25° C., humidity 70%
Method: Tea leaves were immersed for about 30 seconds in a liquid chemical prepared by diluting a preparation containing each compound listed in Tables 1 to 3 as an active ingredient to adjust the concentration to 50 ppm. After air-dryness, the tea leaves were placed in a plastic Petri dish with a diameter of 9 cm and inoculated with larvae of smaller tea tortrix, after which the dish was allowed to stand in a room thermostatted at 25° C. and having a humidity of 70%. Eight days after the inoculation, the dead and alive larvae were counted and, the mortality was calculated according to the equation shown in Test Example 2, and the insecticidal effect was judged according to the criterion shown in Test Example 1. The test was carried out with triplicate groups of 10 insects.

[3] = tested on: Diamond Back Moth (Plutella xylostella); assay: Insecticidal test on diamond back moth (Test Example 1); settings: Chinese cabbage seedling with eggs immersed about 30 seconds, hatched insects counted six days after immersion, 25° C.; for Test Example 1: insecticidal effect (mortality criterion): 50 ppm; for mortality at 50 ppm: Plutella xylostella, 144 h, read-out: Test Example 1: insecticidal effect (mortality criterion)
Method: Adult diamond back moths were released and allowed to oviposit on a Chinese cabbage seedling. Two days after the release, the seedling having the eggs deposited thereon was immersed for about 30 seconds in a liquid chemical prepared by diluting a preparation containing each compound listed in Tables 1 to 3 as an active ingredient to adjust the concentration to 50 ppm. After air-dryness, it was allowed to stand in a room thermostatted at 25° C. Six days after the immersion, the hatched insects were counted. The mortality was calculated according to the following equation and the insecticidal effect was judged according to the criterion shown below. The test was carried out with triplicate groups of 10 insects.

CSCC(C)NC(=O)c1c(I)cccc1C(=O)Nc1ccc(S(F)(F)(F)(F)F)cc1C (stereo not drawn) [1-290]
Test Example 2: insecticidal effect (mortality criterion) [1]: A (Mortality 100%)
Test Example 3: insecticidal effect (mortality criterion) [2]: A (Mortality 100%)
Test Example 1: insecticidal effect (mortality criterion) [3]: A (Mortality 100%)

Cc1cc(S(F)(F)(F)(F)F)ccc1NC(=O)c1cccc(I)c1C(=O)NC(C)CS(C)(=O)=O (stereo not drawn) [1-292]
Test Example 2: insecticidal effect (mortality criterion) [1]: A (Mortality 100%)
Test Example 3: insecticidal effect (mortality criterion) [2]: A (Mortality 100%)
Test Example 1: insecticidal effect (mortality criterion) [3]: A (Mortality 100%)

CSCC(C)(C)NC(=O)c1c(I)cccc1C(=O)Nc1ccc(S(F)(F)(F)(F)F)cc1C [1-296]
Test Example 2: insecticidal effect (mortality criterion) [1]: A (Mortality 100%)
Test Example 3: insecticidal effect (mortality criterion) [2]: A (Mortality 100%)
Test Example 1: insecticidal effect (mortality criterion) [3]: A (Mortality 100%)

Cc1cc(S(F)(F)(F)(F)F)ccc1NC(=O)c1cccc(I)c1C(=O)NC(C)(C)C[S+](C)[O-] (stereo not drawn) [1-297]
Test Example 2: insecticidal effect (mortality criterion) [1]: A (Mortality 100%)
Test Example 3: insecticidal effect (mortality criterion) [2]: A (Mortality 100%)
Test Example 1: insecticidal effect (mortality criterion) [3]: A (Mortality 100%)

Cc1cc(S(F)(F)(F)(F)F)ccc1NC(=O)c1cccc(I)c1C(=O)NC(C)(C)CS(C)(=O)=O [1-298]
Test Example 2: insecticidal effect (mortality criterion) [1]: A (Mortality 100%)
Test Example 3: insecticidal effect (mortality criterion) [2]: A (Mortality 100%)
Test Example 1: insecticidal effect (mortality criterion) [3]: A (Mortality 100%)

CSCC(C)(C)NC(=O)c1c(I)cccc1C(=O)Nc1ccc(S(F)(F)(F)(F)F)cc1Cl [1-372, N^1-(2-chloro-4-pentafluorosulfanylphenyl)-N^2-(1,1-dimethyl-2-methylthioethyl)-3-iodophthalamide]
mortality at 50 ppm [1]: 100%
Test Example 3: insecticidal effect (mortality criterion) [2]: A (Mortality 100%)
mortality at 50 ppm [3]: 100%

CC(C)(CS(C)(=O)=O)NC(=O)c1c(I)cccc1C(=O)Nc1ccc(S(F)(F)(F)(F)F)cc1Cl [1-374, N^1-(2-chloro-4-pentafluorosulfanylphenyl)-N^2-(1,1-dimethyl-2-methylsulfonylethyl)-3-iodophthalamide]
mortality at 50 ppm [1]: 100%
Test Example 3: insecticidal effect (mortality criterion) [2]: A (Mortality 100%)
mortality at 50 ppm [3]: 100%

CSCC(C)(C)NC(=O)c1c(I)cccc1C(=O)Nc1ccc(S(F)(F)(F)(F)F)cc1 [1-458]
Test Example 2: insecticidal effect (mortality criterion) [1]: A (Mortality 100%)
Test Example 3: insecticidal effect (mortality criterion) [2]: A (Mortality 100%)
Test Example 1: insecticidal effect (mortality criterion) [3]: A (Mortality 100%)

CCN(C(=O)c1cccc(I)c1C(=O)NC(C)(C)CSC)c1ccc(S(F)(F)(F)(F)F)cc1 [2-22]
Test Example 2: insecticidal effect (mortality criterion) [1]: A (Mortality 100%)
Test Example 3: insecticidal effect (mortality criterion) [2]: A (Mortality 100%)
Test Example 1: insecticidal effect (mortality criterion) [3]: A (Mortality 100%)

CCN(C(=O)c1cccc(I)c1C(=O)NC(C)(C)C[S+](C)[O-])c1ccc(S(F)(F)(F)(F)F)cc1 (stereo not drawn) [2-23]
Test Example 2: insecticidal effect (mortality criterion) [1]: A (Mortality 100%)
Test Example 3: insecticidal effect (mortality criterion) [2]: E (Mortality 49% or less)
Test Example 1: insecticidal effect (mortality criterion) [3]: A (Mortality 100%)

CCN(C(=O)c1cccc(I)c1C(=O)NC(C)(C)CS(C)(=O)=O)c1ccc(S(F)(F)(F)(F)F)cc1 [2-24]
Test Example 2: insecticidal effect (mortality criterion) [1]: A (Mortality 100%)
Test Example 3: insecticidal effect (mortality criterion) [2]: A (Mortality 100%)
Test Example 1: insecticidal effect (mortality criterion) [3]: A (Mortality 100%)

CSCC(C)(C)NC(=O)c1c(I)cccc1C(=O)Nc1cccc(S(F)(F)(F)(F)F)c1 [3-5]
Test Example 2: insecticidal effect (mortality criterion) [1]: E (Mortality 49% or less)
Test Example 3: insecticidal effect (mortality criterion) [2]: A (Mortality 100%)
Test Example 1: insecticidal effect (mortality criterion) [3]: A (Mortality 100%)

C[S+]([O-])CC(C)(C)NC(=O)c1c(I)cccc1C(=O)Nc1cccc(S(F)(F)(F)(F)F)c1 (stereo not drawn) [3-6]
Test Example 2: insecticidal effect (mortality criterion) [1]: D (Mortality 79–50%)
Test Example 3: insecticidal effect (mortality criterion) [2]: E (Mortality 49% or less)
Test Example 1: insecticidal effect (mortality criterion) [3]: A (Mortality 100%)

CC(C)(CS(C)(=O)=O)NC(=O)c1c(I)cccc1C(=O)Nc1cccc(S(F)(F)(F)(F)F)c1 [3-7]
Test Example 2: insecticidal effect (mortality criterion) [1]: A (Mortality 100%)
Test Example 3: insecticidal effect (mortality criterion) [2]: A (Mortality 100%)
Test Example 1: insecticidal effect (mortality criterion) [3]: A (Mortality 100%)

CSCC(C)(C)NC(=O)c1c(I)cccc1C(=O)Nc1cccc(S(F)(F)(F)(F)F)c1Cl [3-24]
Test Example 2: insecticidal effect (mortality criterion) [1]: A (Mortality 100%)
Test Example 3: insecticidal effect (mortality criterion) [2]: A (Mortality 100%)
Test Example 1: insecticidal effect (mortality criterion) [3]: A (Mortality 100%)

CC(C)(CS(C)(=O)=O)NC(=O)c1c(I)cccc1C(=O)Nc1cccc(S(F)(F)(F)(F)F)c1Cl [3-26]
Test Example 2: insecticidal effect (mortality criterion) [1]: A (Mortality 100%)
Test Example 3: insecticidal effect (mortality criterion) [2]: A (Mortality 100%)
Test Example 1: insecticidal effect (mortality criterion) [3]: A (Mortality 100%)
